# Experimental data taken from patent US20250020658A1, “METHODS FOR SYNTHESIZING AND IDENTIFYING SYNTHETIC PROTEINS INCLUDING TARGETED THERAPEUTICS FOR NEURODEGENERATIVE DISORDERS BASED ON BIO-MIMICRY APPROACHES” (University of Denver, priority 2023, published 2025).
# “Also recorded” adds a separate entry of the source. Read-outs that look alike come from different tables or passages of the source.
# Tests used:
# [1] = target: α-Synuclein (αS) aggregation (Homo sapiens, UniProt P37840); assay: Thioflavin T (ThT) dye-based aggregation assay against aggregation of αS; type: biochemical; conditions: lower ThT intensity = higher antagonist activity
# Excerpt: The resulting dimers are again evaluated with a ThT assay (step (g)), and the best performing dimer is selected in a step (h). The process is repeated to screen for the best performing trimer (step (i)), and so on.
# In particular, FIG. 21 is a graph comparing the relative ThT intensities of various molecules synthesized using the 2D FAST process, in accordance with embodiments. The lower the ThT intensity, the higher the antagonist activity of ligands against the target protein (synuclein aggregation in this example).
# C. elegans PD models = assay: C. elegans Parkinson's disease models; type: in vivo; conditions: for rescue of PD phenotypes: multiple C. elegans PD models: degeneration of dopaminergic neurons, increase in reactive oxygen species, reduced motility
# Excerpt: Using OPs as the basis, the 2D FAST approach was used to identify potent antagonists of α-Synuclein (αS) aggregation, a process central to Parkinson's disease (PD) as discussed above. […] (See, for example, “A 2D Fragment-Assisted Protein Mimetic Approach to Rescue α-Synuclein Aggregation Mediated Early and Post-Disease Parkinson's Phenotypes,” bioRxiv preprint posted 2022 Jul. 13, doi: https://doi.org/10.1101/2022.07.11.499659)
# [2] = Parallel Artificial Membrane Permeability Assay (PAMPA); type: in vitro ADME; conditions: NS163 compared with NS132
# Excerpt: FIG. 22 is a graph comparing the cell permeability of various ligands identified and synthesized using the 2D FAST approach and assessed using the Parallel Artificial Membrane Permeability Assay (PAMPA) technique. […] FIG. 25 is a graph comparing the relative ThT intensities of various molecules synthesized using the 2D FAST process in the presence of αS, in accordance with embodiments.
# αS oligomers = αS oligomers (Homo sapiens, UniProt P37840); conditions: pathological high molecular weight αS oligomers vs αS monomers (native conformation), cited from earlier work
# [3] = mouse model; cited from earlier work
structure (smiles),measurement,setting,value
Cc1ccc(NC(=O)c2ccc([N+](=O)[O-])c(NCC3CCCCC3)n2)c(OCC(=O)O)n1 [NS55],antagonist activity against αS aggregation,[1],potent inhibitor of α-Synuclein aggregation
Cc1ccc(NC(=O)c2ccc(NC(=O)c3ccc([N+](=O)[O-])c(NCCc4c[nH]c5ccccc45)n3)c(NCC3CCCCC3)n2)c(OCC(=O)O)n1 [NS132],antagonist activity against αS aggregation,[1],most potent tripyridyl; also recorded: antagonist of the multiple facets of αS aggregation
same,rescue of PD phenotypes,C. elegans PD models,very effective ligands in rescuing PD phenotypes
Cc1ccc(NC(=O)c2ccc(NC(=O)c3ccc([N+](=O)[O-])c(NCCc4c[nH]c5ccccc45)n3)c(NCC3CCCCC3)n2)c(OCC(=O)NO)n1 [NS163],antagonist activity against αS aggregation,[1],potent antagonist of α-Synuclein aggregation; also recorded: without sacrificing activity
same,cell permeability,[2],increased cell permeability; also recorded: better cell permeability
same,activity within a C. elegans Parkinson's disease model,C. elegans PD models; NS163 as enhanced version of NS132,increased cell permeability and activity
same,rescue of PD phenotypes,C. elegans PD models,very effective ligands in rescuing PD phenotypes
COC(=O)c1cc(OCC(=O)O)c2cccc(NC(=O)c3cc(OC(C)C)c4cccc(NC(=O)c5cc(OCC(=O)O)c6cccc(NC(=O)c7cc(OC(C)C)c8cccc([N+](=O)[O-])c8n7)c6n5)c4n3)c2n1 [SK-129],affinity to αS oligomers relative to αS monomers,αS oligomers,10 fold
same,affinity to αS oligomers relative to αS monomers,αS oligomers; listed as SK-α129,ten-fold higher affinity
same,crossing of the BBB,[3],efficiently crosses the BBB
same,toxicity,[3],without demonstrating any toxicity
